Several values for one entry are separate records, joined by “and”; a condition that tells them apart may be missing. Equal entries are not always repeated. Inconclusive results and toxic doses are left out. How the source made its calls: active means survival T/C of 150% or more; inactive means T/C below 125% in these data.
Test system: BDF1 mice, P388 leukemia ip, median survival T/C
Test: NCI In Vivo Anticancer Drug Screen. Data for tumor model P388 Leukemia (intraperitoneal) in B6D2F1 (BDF1) mice
Conditions: endpoint: median survival time, higher = longer survival
How it was run: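 Steps: implant the tumour, treat one group with compound and another with vehicle, record survival, then divide treated by control.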

[1] = dose: 25.0 mg/kg/injection, schedule: Q04DX003 (ip), vehicle: saline with Tween-80
[2] = dose: 50.0 mg/kg/injection, schedule: Q04DX003 (ip), vehicle: saline with Tween-80
[3] = dose: 100.0 mg/kg/injection, schedule: Q01DX009 (ip), vehicle: Klucel (hydroxypropylcellulose) (HPC)
[4] = dose: 100.0 mg/kg/injection, schedule: Q04DX003 (ip), vehicle: Klucel (hydroxypropylcellulose) (HPC)
[5] = dose: 200.0 mg/kg/injection, schedule: Q01DX009 (ip), vehicle: Klucel (hydroxypropylcellulose) (HPC)
[6] = dose: 200.0 mg/kg/injection, schedule: Q04DX003 (ip), vehicle: Klucel (hydroxypropylcellulose) (HPC)
[7] = dose: 400.0 mg/kg/injection, schedule: Q01DX009 (ip), vehicle: Klucel (hydroxypropylcellulose) (HPC)
[8] = dose: 400.0 mg/kg/injection, schedule: Q04DX003 (ip), vehicle: Klucel (hydroxypropylcellulose) (HPC)
[9] = dose: 6.25 mg/kg/injection, schedule: Q01DX009 (ip), vehicle: saline with Tween-80
[10] = dose: 12.5 mg/kg/injection, schedule: Q01DX009 (ip), vehicle: saline with Tween-80
[11] = dose: 50.0 mg/kg/injection, schedule: Q01DX009 (ip), vehicle: saline with Tween-80
[12] = dose: 100.0 mg/kg/injection, schedule: Q01DX009 (ip), vehicle: saline with Tween-80
[13] = dose: 200.0 mg/kg/injection, schedule: Q01DX009 (ip), vehicle: saline with Tween-80
[14] = dose: 6.25 mg/kg/injection, schedule: Q01DX009 (ip), vehicle: saline
[15] = dose: 400.0 mg/kg/injection, schedule: Q01DX009 (ip), vehicle: saline with Tween-80

Measured: T/C

CC(=O)OCC(=O)[C@@]12OC(C)(C)O[C@@H]1C[C@H]1[C@@H]3CC(C=O)=C4C=C(OCCCl)CC[C@]4(C)[C@@]3(F)[C@@H](O)C[C@@]12C
inactive: dose: 0.39 mg/kg/injection, schedule: Q01DX009 (ip), vehicle: Klucel (hydroxypropylcellulose) (HPC) 95 % of control | dose: 0.78 mg/kg/injection, schedule: Q01DX009 (ip), vehicle: Klucel (hydroxypropylcellulose) (HPC) 107 % of control and 113 % of control | dose: 1.56 mg/kg/injection, schedule: Q01DX009 (ip), vehicle: Klucel (hydroxypropylcellulose) (HPC) 106 % of control and 113 % of control | dose: 2.3 mg/kg/injection, schedule: Q04DX003 (ip), vehicle: Klucel (hydroxypropylcellulose) (HPC) 104 % of control | dose: 3.12 mg/kg/injection, schedule: Q01DX009 (ip), vehicle: Klucel (hydroxypropylcellulose) (HPC) 100 % of control | dose: 3.13 mg/kg/injection, schedule: Q01DX009 (ip), vehicle: Klucel (hydroxypropylcellulose) (HPC) 105 % of control | dose: 4.6 mg/kg/injection, schedule: Q04DX003 (ip), vehicle: Klucel (hydroxypropylcellulose) (HPC) 109 % of control | dose: 6.25 mg/kg/injection, schedule: Q01DX009 (ip), vehicle: Klucel (hydroxypropylcellulose) (HPC) 122 % of control | dose: 9.3 mg/kg/injection, schedule: Q04DX003 (ip), vehicle: Klucel (hydroxypropylcellulose) (HPC) 100 % of control | dose: 12.5 mg/kg/injection, schedule: Q01DX009 (ip), vehicle: Klucel (hydroxypropylcellulose) (HPC) 124 % of control | dose: 13.0 mg/kg/injection, schedule: Q04DX003 (ip), vehicle: Klucel (hydroxypropylcellulose) (HPC) 115 % of control | [1] 115 % of control | dose: 30.0 mg/kg/injection, schedule: Q04DX003 (ip), vehicle: Klucel (hydroxypropylcellulose) (HPC) 115 % of control | dose: 45.0 mg/kg/injection, schedule: Q04DX003 (ip), vehicle: Klucel (hydroxypropylcellulose) (HPC) 104 % of control | [2] 114 % of control | dose: 70.0 mg/kg/injection, schedule: Q04DX003 (ip), vehicle: Klucel (hydroxypropylcellulose) (HPC) 108 % of control | dose: 100.0 mg/kg/injection, schedule: Q04DX003 (ip), vehicle: saline with Tween-80 124 % of control | dose: 105.0 mg/kg/injection, schedule: Q04DX003 (ip), vehicle: Klucel (hydroxypropylcellulose) (HPC) 113 % of control | dose: 200.0 mg/kg/injection, schedule: Q04DX003 (ip), vehicle: saline with Tween-80 118 % of control | dose: 400.0 mg/kg/injection, schedule: Q04DX003 (ip), vehicle: saline with Tween-80 100 % of control

c1ccc(C2=C(c3ccccc3)C23SCCS3)cc1
inactive: [3] 113 % of control | [4] 104 % of control | [5] 95 % of control | [6] 113 % of control | [7] 86 % of control | [8] 100 % of control

O=C(O)c1c(Cl)c(Cl)c(Cl)c(C(=O)O)c1Cl
inactive: dose: 50.0 mg/kg/injection, schedule: Q01DX009 (ip), vehicle: Klucel (hydroxypropylcellulose) (HPC) 104 % of control | dose: 50.0 mg/kg/injection, schedule: Q04DX003 (ip), vehicle: Klucel (hydroxypropylcellulose) (HPC) 109 % of control | [3] 100 % of control | [4] 95 % of control | [6] 100 % of control

CCC(SC(CC(=O)O)C(=O)O)C(=O)O (stereo not drawn)
inactive: dose: 12.5 mg/kg/injection, schedule: Q01DX001 (ip), vehicle: saline with Tween-80 100 % of control | dose: 25.0 mg/kg/injection, schedule: Q01DX001 (ip), vehicle: saline with Tween-80 99 % of control | dose: 50.0 mg/kg/injection, schedule: Q01DX001 (ip), vehicle: saline with Tween-80 90 % of control

C[N+](C)(C)c1ccc2c(c1)CCC/C2=N\N
inactive: dose: 6.25 mg/kg/injection, schedule: Q04DX003 (ip), vehicle: saline with Tween-80 94 % of control

C[n+]1ccc2cc(-c3ccccc3)c3ccccc3c2c1
inactive: dose: 0.06 mg/kg/injection, schedule: Q01DX009 (ip), vehicle: water 100 % of control | dose: 0.12 mg/kg/injection, schedule: Q01DX009 (ip), vehicle: water 88 % of control | dose: 0.25 mg/kg/injection, schedule: Q01DX009 (ip), vehicle: water 89 % of control | dose: 0.5 mg/kg/injection, schedule: Q01DX009 (ip), vehicle: water 100 % of control | dose: 1.0 mg/kg/injection, schedule: Q01DX009 (ip), vehicle: water 100 % of control and 101 % of control | dose: 2.0 mg/kg/injection, schedule: Q01DX009 (ip), vehicle: water 101 % of control | dose: 4.0 mg/kg/injection, schedule: Q01DX009 (ip), vehicle: water 99 % of control

CCCC(O)Cc1c[nH]c(=O)[nH]c1=O (stereo not drawn)
inactive: [9] 101 % of control | [10] 92 % of control | dose: 12.5 mg/kg/injection, schedule: Q04DX003 (ip), vehicle: saline with Tween-80 101 % of control | dose: 25.0 mg/kg/injection, schedule: Q01DX009 (ip), vehicle: saline with Tween-80 106 % of control | [1] 104 % of control | [11] 93 % of control | [2] 100 % of control

CCOC(=O)/C=C(/C)SC1=CC(=O)c2ccccc2C1=O
inactive: dose: 1.56 mg/kg/injection, schedule: Q01DX009 (ip), vehicle: saline with Tween-80 107 % of control and 113 % of control | dose: 3.13 mg/kg/injection, schedule: Q01DX009 (ip), vehicle: saline with Tween-80 106 % of control and 107 % of control | [9] 104 % of control and 117 % of control | [10] 107 % of control and 115 % of control

Nc1ccn(C2OC(CO)C(O)C2O)c(=O)c1 (stereo not drawn)
inactive: dose: 25.0 mg/kg/injection, schedule: Q01DX009 (ip), vehicle: saline 93 % of control | dose: 50.0 mg/kg/injection, schedule: Q01DX009 (ip), vehicle: saline 95 % of control | dose: 100.0 mg/kg/injection, schedule: Q01DX009 (ip), vehicle: saline 112 % of control | dose: 200.0 mg/kg/injection, schedule: Q01DX009 (ip), vehicle: saline 102 % of control

O=C(O)c1cc(C(Cl)(Cl)Cl)ccc1C(Cl)(Cl)Cl
inactive: dose: 100.0 mg/kg/injection, schedule: Q04DX003 (ip), vehicle: saline sonified 95 % of control | dose: 400.0 mg/kg/injection, schedule: Q04DX003 (ip), vehicle: saline sonified 104 % of control

Clc1ccc2c(c1)nnn2OC1CCCC1
inactive: [11] 97 % of control | [12] 88 % of control | [13] 90 % of control

CCCCCCCC[N+]12CC[N+](CCCCCCCC)(CC1)CC2
inactive: dose: 3.13 mg/kg/injection, schedule: Q01DX009 (ip), vehicle: saline 106 % of control | [14] 103 % of control

CC1=C2CC(C)(C)/C=C\C(=O)/C(C)=C\C3=C[C@H](C)C[C@]3(O2)C1=O
inactive: dose: 0.5 mg/kg/injection, schedule: Q01DX010 (ip), vehicle: carboxymethylcellulose (CMC) 100 % of control | dose: 1.0 mg/kg/injection, schedule: Q01DX010 (ip), vehicle: carboxymethylcellulose (CMC) 100 % of control | dose: 2.0 mg/kg/injection, schedule: Q01DX010 (ip), vehicle: carboxymethylcellulose (CMC) 100 % of control | dose: 4.0 mg/kg/injection, schedule: Q01DX010 (ip), vehicle: carboxymethylcellulose (CMC) 104 % of control | dose: 8.0 mg/kg/injection, schedule: Q01DX010 (ip), vehicle: carboxymethylcellulose (CMC) 95 % of control

COc1ccc(C(=O)CC(=O)CC(=O)c2ccccc2)cc1
inactive: [5] 86 % of control | [7] 90 % of control

Nc1ccc(OCc2ccc(C(=O)Nc3cccc(S(=O)(=O)F)c3)cc2)c(Cl)c1
inactive: [12] 91 % of control | [4] 100 % of control | [13] 91 % of control | [6] 100 % of control | [15] 100 % of control | [8] 100 % of control

NCC(=O)Nc1ccc(O)cc1
inactive: dose: 79.0 mg/kg/injection, schedule: Q04DX003 (ip), vehicle: saline with Tween-80 100 % of control | dose: 118.0 mg/kg/injection, schedule: Q04DX003 (ip), vehicle: saline with Tween-80 104 % of control | dose: 176.0 mg/kg/injection, schedule: Q04DX003 (ip), vehicle: saline with Tween-80 100 % of control | [15] 118 % of control | dose: 600.0 mg/kg/injection, schedule: Q01DX009 (ip), vehicle: saline with Tween-80 90 % of control

CCCCCCCOc1cccc(OCCCC[N+]2(CC)CCCCC2)c1
inactive: [14] 110 % of control

Source: PubChem BioAssay AID328 (DTP/NCI, 2004)
